Assay results as given in patent publication US20240317718A1, “SUBSTITUTED HETEROCYCLIC COMPOUNDS” (BRISTOL-MYERS SQUIBB COMPANY, priority 2021, published 2024).

Key:
[1] = test system: IFNα-induced pSTAT5 (Tyk2-mediated signal transduction); assay: IFNα-induced STAT phosphorylation in human whole blood; assay type: cell-based; conditions: 1 h incubation with compound, 1000 U/mL IFNα A/D for 15 min, CD3 positive population, read-out: Human Whole blood IFNa pSTAT5 IC50
Protocol: IFNα-Induced STAT Phosphorylation in Human Whole Blood
After an hour long incubation with compound, human whole blood (drawn with ACD-A as anticoagulant) was stimulated with 1000 U/mL recombinant human IFNα A/D (R&D Systems 11200-2) for 15 min. The stimulation was stopped by adding Fix/Lyse buffer (BD 558049). Cells were stained with a CD3 FITC antibody (BD 555916), washed, and permeabilized on ice using Perm III buffer (BD 558050). Cells were then stained with an Alexa-Fluor 647 pSTAT5 (pY694) antibody (BD 612599) for 60 min prior to analysis on the iQue Plus. The amount of pSTAT5 expression was quantitated by median fluorescence intensity after gating on the CD3 positive population.

in vitro = conditions: human, Caco-2, pH 7.4

SMILES | IC50 [1] [nM] | Papp A→B at 2 h, 3 μM (in vitro) [×10⁻⁶ cm/s] | efflux ratio at 2 h, 3 μM (in vitro)
CCOCc1nc(-c2cccc(Nc3cc(NC(=O)C4CC4)nnc3C(=O)NC)c2OC)no1 [Example 3, 6-cyclopropaneamido-4-({3-[5-(ethoxymethyl)-1,2,4-oxadiazol-3-yl]-2-methoxyphenyl}amino)-N-(^2H3)methylpyridazine-3-carboxamide] | 31 |  | 
CNC(=O)c1nnc(NC(=O)C2CC2)cc1Nc1cccc(-c2noc(CCOC)n2)c1OC [Example 4, 6-cyclopropaneamido-4-({2-methoxy-3-[5-(2-methoxyethyl)-1,2,4-oxadiazol-3-yl]phenyl}amino)-N-(^2H3)methylpyridazine-3-carboxamide] | 9 |  | 
[2H]C([2H])([2H])NC(=O)c1nnc(NC(=O)C2CC2)cc1Nc1cccc(-c2ccc(C(F)F)cn2)c1OC [Example 7, 6-(cyclopropanecarboxamido)-4-((3-(5-(difluoromethyl)pyridin-2-yl)-2-methoxyphenyl)amino)-N-(methyl-d3)pyridazine-3-carboxamide] | 431 | 31.3 | 0.6
CNC(=O)c1nnc(NC(=O)C2CC2)cc1Nc1cccc(-c2cc(C)ncn2)c1OC [Example 8, 6-cyclopropaneamido-4-{[2-methoxy-3-(6-methylpyrimidin-4-yl)phenyl]amino}-N-(^2H3)methylpyridazine-3-carboxamide] | 248 |  | 
CNC(=O)c1nnc(NC(=O)C2CC2)cc1Nc1cccc(-c2ncns2)c1OC [Example 9, 6-cyclopropaneamido-4-{[2-methoxy-3-(1,2,4-thiadiazol-5-yl)phenyl]amino}-N-(^2H3)methylpyridazine-3-carboxamide] | 161 |  | 
CNC(=O)c1nnc(NC(=O)C2CC2)cc1Nc1cccc(-c2cnc(F)cn2)c1OC [Example 10, 6-cyclopropaneamido-4-{[3-(5-fluoropyrazin-2-yl)-2-methoxyphenyl]amino}-N-(^2H3)methylpyridazine-3-carboxamide] | 219 |  | 
CNC(=O)c1nnc(NC(=O)C2CC2)cc1Nc1cccc(-c2cnc(C3CC3)cn2)c1OC [Example 11, 6-cyclopropaneamido-4-{[3-(5-cyclopropylpyrazin-2-yl)-2-methoxyphenyl]amino}-N-(^2H3)methylpyridazine-3-carboxamide] | 165 |  | 
CNC(=O)c1nnc(NC(=O)C2CC2)cc1Nc1cccc(-c2cnc([N+](=O)[O-])cn2)c1OC [Example 12, 6-cyclopropaneamido-4-{[2-methoxy-3-(5-nitropyrazin-2-yl)phenyl]amino}-N-(^2H3)methylpyridazine-3-carboxamide] | 44 |  | 
CNC(=O)c1nnc(NC(=O)C2CC2)cc1Nc1cccc(-c2nc(C)ns2)c1OC [Example 13, 6-cyclopropaneamido-4-{[2-methoxy-3-(3-methyl-1,2,4-thiadiazol-5-yl)phenyl]amino}-N-(^2H3)methylpyridazine-3-carboxamide] | 51 |  | 
[2H]C([2H])([2H])NC(=O)c1nnc(NC(=O)C2CC2)cc1Nc1cc(C)cc(-c2cnc(C3(O)CCC3)cn2)c1OC [Example 14, 6-(cyclopropanecarboxamido)-4-((3-(5-(1-hydroxycyclobutyl)pyrazin-2-yl)-2-methoxy-5-methylphenyl)amino)-N-(methyl-d3)pyridazine-3-carboxamide] | 148 | 37.8 | 0.9
[2H]C([2H])([2H])NC(=O)c1nnc(NC(=O)C2CC2)cc1Nc1cc(F)cc(-c2cnc(C3(O)CCC3)cn2)c1OC [Example 15, 6-cyclopropaneamido-4-({5-fluoro-3-[5-(1-hydroxycyclobutyl)pyrazin-2-yl]-2-methoxyphenyl}amino)-N-(^2H3)methylpyridazine-3-carboxamide] | 99 | 30.9 | 1
[2H]C([2H])([2H])NC(=O)c1nnc(NC(=O)C2CC2)cc1Nc1cc(F)cc(-c2cnc(C3CC3)cn2)c1OC [Example 16, 6-(cyclopropanecarboxamido)-4-((3-(5-cyclopropylpyrazin-2-yl)-5-fluoro-2-methoxyphenyl)amino)-N-(methyl-d3)pyridazine-3-carboxamide] | 197 | 19.4 | 0.5
[2H]C([2H])([2H])NC(=O)c1nnc(NC(=O)C2CC2)cc1Nc1cccc(-c2noc(C(F)F)n2)c1OC [Example 19, 6-(cyclopropanecarboxamido)-4-((3-(5-(difluoromethyl)-1,2,4-oxadiazol-3-yl)-2-methoxyphenyl)amino)-N-(methyl-d3)pyridazine-3-carboxamide] | 69 | 17 | 0.6
[2H]C([2H])([2H])NC(=O)c1nnc(NC(=O)C2CC2)cc1Nc1nccc(-c2cnc(C(C)(C)O)cn2)c1OC [Example 20, 6-(cyclopropanecarboxamido)-4-((4-(5-(2-hydroxypropan-2-yl)pyrazin-2-yl)-3-methoxypyridin-2-yl)amino)-N-(methyl-d3)pyridazine-3-carboxamide] | 148 | 18.8 | 2.9
[2H]C([2H])([2H])NC(=O)c1nnc(NC(=O)C2CC2)cc1Nc1cccc(-c2ccc(C(C)(C)C#N)cn2)c1OC [Example 24, 4-({3-[5-(1-cyano-1-methylethyl)pyridin-2-yl]-2-methoxyphenyl}amino)-6-cyclopropaneamido-N-(^2H3)methylpyridazine-3-carboxamide] | 426 | 14.8 | 1.2

Now from value to compound:

IC50 [1] [nM] | Papp A→B at 2 h, 3 μM (in vitro) [×10⁻⁶ cm/s] | efflux ratio at 2 h, 3 μM (in vitro) | SMILES
248 | 23.3 | 1.1 | [2H]C([2H])([2H])NC(=O)c1nnc(NC(=O)C2C[C@H]2C)cc1Nc1cccc(-c2nnn(C)n2)c1OC (mixture of isomers) [Example 25, 4-{[2-methoxy-3-(2-methyl-2H-1,2,3,4-tetrazol-5-yl)phenyl]amino}-N-(^2H3)methyl-6-[(1R,2R)-2-methylcyclopropaneamido]pyridazine-3-carboxamide]
34 | 65 | 0.5 | [2H]C([2H])([2H])NC(=O)c1nnc(NC(=O)C2CC2)cc1Nc1cccc(-c2noc(CF)n2)c1OC [Example 1, 6-(cyclopropanecarboxamido)-4-((3-(5-(fluoromethyl)-1,2,4-oxadiazol-3-yl)-2-methoxyphenyl)amino)-N-(methyl-d3)pyridazine-3-carboxamide]
13 | 66.1 | 0.3 | [2H]C([2H])([2H])NC(=O)c1nnc(NC(=O)C2CC2)cc1Nc1cccc(-c2noc(COC(C)C)n2)c1OC [Example 2, 6-(cyclopropanecarboxamido)-4-((3-(5-(isopropoxymethyl)-1,2,4-oxadiazol-3-yl)-2-methoxyphenyl)amino)-N-(methyl-d3)pyridazine-3-carboxamide]
91 | 64 | 0.7 | [2H]C([2H])([2H])NC(=O)c1nnc(NC(=O)C2CC2)cc1Nc1cccc(-c2noc(CCF)n2)c1OC [Example 5, 6-(cyclopropanecarboxamido)-4-((3-(5-(2-fluoroethyl)-1,2,4-oxadiazol-3-yl)-2-methoxyphenyl)amino)-N-(methyl-d3)pyridazine-3-carboxamide]
42 | 78.5 | 0.5 | [2H]C([2H])([2H])NC(=O)c1nnc(NC(=O)C2CC2)cc1Nc1cccc(-c2cocn2)c1OC [Example 6, 6-(cyclopropanecarboxamido)-4-((2-methoxy-3-(oxazol-4-yl)phenyl)amino)-N-(methyl-d3)pyridazine-3-carboxamide]
63 | 47.4 | 0.4 | [2H]C([2H])([2H])NC(=O)c1nnc(NC(=O)C2CC2)cc1Nc1cccc(-c2coc(C)n2)c1OC [Example 17, 6-(cyclopropanecarboxamido)-4-((2-methoxy-3-(2-methyloxazol-4-yl)phenyl)amino)-N-(methyl-d3)pyridazine-3-carboxamide]
152 | 25.9 | 0.7 | [2H]C([2H])([2H])NC(=O)c1nnc(NC(=O)C2CC2)cc1Nc1cccc(-c2nc(C)oc2C)c1OC [Example 18, 6-cyclopropaneamido-4-{[3-(2,5-dimethyl-1,3-oxazol-4-yl)-2-methoxyphenyl]amino}-N-(^2H3)methylpyridazine-3-carboxamide]
385 | 14.1 | 0.7 | [2H]C([2H])([2H])NC(=O)c1nnc(NC(=O)C2CC2)cc1Nc1cccc(-c2csc(C)n2)c1OC [Example 21, 6-cyclopropaneamido-4-{[2-methoxy-3-(2-methyl-1,3-thiazol-4-yl)phenyl]amino}-N-(^2H3)methylpyridazine-3-carboxamide]
410 | 32.3 | 0.6 | [2H]C([2H])([2H])NC(=O)c1nnc(NC(=O)C2CC2)cc1Nc1cccc(-c2cnc(OC)cn2)c1OC [Example 22, 6-cyclopropaneamido-4-{[2-methoxy-3-(5-methoxypyrazin-2-yl)phenyl]amino}-N-(^2H3)methylpyridazine-3-carboxamide]
243 | 17.4 | 1.4 | [2H]C([2H])([2H])NC(=O)c1nnc(NC(=O)C2CC2)cc1Nc1cccc(-c2cnc(C)cn2)c1OC [Example 23, 6-cyclopropaneamido-4-{[2-methoxy-3-(5-methylpyrazin-2-yl)phenyl]amino}-N-(^2H3)methylpyridazine-3-carboxamide]
